Test results as given in publication PMC10733197, “Utilization of Rosuvastatin and Endogenous Biomarkers in Evaluating the Impact of Ritlecitinib on BCRP, OATP1B1, and OAT3 Transporter Activity” (Pharmaceutical Research, 2023).
“And” between values parts separate entries of the source, which are not always exact repeats. Identical values can stand only once.

Key:
OATP1B1 = target: T1, OATP1B1 (Homo sapiens, UniProt Q9Y6L6); test: OATP1B1-mediated rosuvastatin uptake inhibition in transfected HEK293 cells; format: cell-based; settings: for R-value: 1 + (Imax,inlet,u/IC50), cutoff 1.1 (FDA), 1.04 (EMA); for IC50: hepatic OATP1B1, RSV 0.3–0.5 µM as substrate, 1—3 min, HEK293, mean ± SD, n = 3
T1 construct: expressed in transfected cells; host or cells: HEK293
T1 sequence (Q9Y6L6 1-691): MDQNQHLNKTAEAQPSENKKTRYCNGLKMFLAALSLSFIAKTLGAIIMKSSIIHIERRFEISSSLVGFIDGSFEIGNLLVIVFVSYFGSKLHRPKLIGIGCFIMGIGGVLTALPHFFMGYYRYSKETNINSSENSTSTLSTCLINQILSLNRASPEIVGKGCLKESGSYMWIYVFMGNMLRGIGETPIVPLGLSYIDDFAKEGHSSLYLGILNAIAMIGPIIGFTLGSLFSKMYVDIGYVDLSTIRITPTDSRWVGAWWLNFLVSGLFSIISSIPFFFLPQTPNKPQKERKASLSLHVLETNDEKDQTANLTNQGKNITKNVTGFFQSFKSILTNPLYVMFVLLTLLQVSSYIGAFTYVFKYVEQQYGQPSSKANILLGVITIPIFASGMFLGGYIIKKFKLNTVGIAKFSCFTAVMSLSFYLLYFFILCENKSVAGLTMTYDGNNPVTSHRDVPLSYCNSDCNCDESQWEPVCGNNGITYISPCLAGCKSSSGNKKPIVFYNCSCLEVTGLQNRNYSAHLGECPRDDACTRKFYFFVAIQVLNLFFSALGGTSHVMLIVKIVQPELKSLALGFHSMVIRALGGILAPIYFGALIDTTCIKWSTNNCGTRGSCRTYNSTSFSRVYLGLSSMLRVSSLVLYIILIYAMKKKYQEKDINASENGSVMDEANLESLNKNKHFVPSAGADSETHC
Protocol: (§1) Sources of human embryonic kidney (HEK) 293 cells expressing individual transfected human solute carriers (SLC), test substrates, and cell culture reagents, as well as detailed cell culture methods, incubations, and sample processing, have been described previously. SLC included hepatic OATP1B1, OATP1B3, and renal OAT1 and OAT3. […] Likewise, the uptake of non-labeled rosuvastatin (Biosynth, San Diego, CA) at 0.3—0.5 µM was determined for OATP1B1 and OATP1B3 at 1—3 min, and CP-I (Frontier Specialty Chemicals, Logan, UT) at 0.1 µM was determined for OATP1B1 and OATP1B3 at 10 min [14].
(§2) In all cases, ritlecitinib (0.018 to 1000 µM) and metabolite M2 (0.018 to 300 µM) was tested over a wide range of final concentrations dissolved in dimethyl sulfoxide (the final concentration of dimethyl sulfoxide in the assays was 1% v/v). For each transporter, the IC50 was estimated using a four-parameter logistic equation (Eq. 1) using GraphPad Prism software (GraphPad Software Inc, La Jolla, CA).1 %UptakeActivity=Bottom+(Top-Bottom)/1+10^(LogIC50-inhib*HillSlope)
(§3) At the end of the uptake and inhibition experiment, cellular accumulation of ^3H-PAH and ^3H-E3S was determined using liquid scintillation counting as previously described. Rosuvastatin uptake was determined using a tandem high performance liquid chromatography (LC)-mass spectrometry (MS) assay.

OATP1B3 = target: T2, OATP1B3 (Homo sapiens, UniProt Q9NPD5); test: OATP1B3-mediated rosuvastatin uptake inhibition in transfected HEK293 cells; format: cell-based; settings: for IC50: hepatic OATP1B3, RSV 0.3–0.5 µM as substrate, 1—3 min, HEK293, mean ± SD, n = 3
T2 construct: expressed in transfected cells; host or cells: HEK293
T2 sequence (Q9NPD5 1-702): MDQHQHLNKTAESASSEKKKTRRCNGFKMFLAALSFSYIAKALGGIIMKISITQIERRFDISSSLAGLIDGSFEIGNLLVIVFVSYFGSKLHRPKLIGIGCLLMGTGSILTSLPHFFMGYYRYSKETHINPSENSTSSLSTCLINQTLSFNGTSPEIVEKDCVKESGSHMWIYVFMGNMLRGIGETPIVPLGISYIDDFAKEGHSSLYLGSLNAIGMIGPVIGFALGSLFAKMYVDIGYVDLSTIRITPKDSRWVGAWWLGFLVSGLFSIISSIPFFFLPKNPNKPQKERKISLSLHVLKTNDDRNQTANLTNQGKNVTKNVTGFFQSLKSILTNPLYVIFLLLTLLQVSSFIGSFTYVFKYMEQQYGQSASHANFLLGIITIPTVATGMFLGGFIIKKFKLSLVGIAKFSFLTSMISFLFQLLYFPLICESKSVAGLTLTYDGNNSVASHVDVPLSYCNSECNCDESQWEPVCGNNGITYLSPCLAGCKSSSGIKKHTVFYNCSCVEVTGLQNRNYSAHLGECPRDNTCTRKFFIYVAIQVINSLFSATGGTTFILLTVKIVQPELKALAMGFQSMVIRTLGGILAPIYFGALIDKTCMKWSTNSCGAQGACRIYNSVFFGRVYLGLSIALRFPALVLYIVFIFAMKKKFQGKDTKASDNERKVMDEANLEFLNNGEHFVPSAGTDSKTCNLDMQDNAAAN
Protocol: as §1, §2, §3

[1] = Inhibitor exposure estimates and PK inputs for static drug interaction risk assessment; settings: for Cmax,u: maximal free plasma concentration (Cmax × fu) at ritlecitinib 200 mg
OAT1 = target: T3, OAT1 (Homo sapiens, UniProt Q4U2R8); test: OAT1-mediated 3H-PAH uptake inhibition in transfected HEK293 cells; format: cell-based; set-up: expressed in transfected cells; host or cells: HEK293; settings: for Fraction Inhibited / Triggers Drug Interaction Cutoff / Cmax,u/IC50 ratio: OAT1; for Fraction Inhibited: Cmax,u/(Cmax,u + IC50) (Eq. 2); for Triggers Drug Interaction Cutoff: Cmax,u/IC50 cutoff 0.1 (FDA); for Triggers Drug Interaction Cutoff / Cmax,u/IC50 ratio: 0.02 (EMA); for Cmax,u/IC50 ratio: cutoff 0.1 (FDA), ritlecitinib 200 mg; for IC50: renal OAT1, PAH 0.5 µM as substrate, 4 min, HEK293, mean ± SD, n = 3
T3 sequence (Q4U2R8 1-563): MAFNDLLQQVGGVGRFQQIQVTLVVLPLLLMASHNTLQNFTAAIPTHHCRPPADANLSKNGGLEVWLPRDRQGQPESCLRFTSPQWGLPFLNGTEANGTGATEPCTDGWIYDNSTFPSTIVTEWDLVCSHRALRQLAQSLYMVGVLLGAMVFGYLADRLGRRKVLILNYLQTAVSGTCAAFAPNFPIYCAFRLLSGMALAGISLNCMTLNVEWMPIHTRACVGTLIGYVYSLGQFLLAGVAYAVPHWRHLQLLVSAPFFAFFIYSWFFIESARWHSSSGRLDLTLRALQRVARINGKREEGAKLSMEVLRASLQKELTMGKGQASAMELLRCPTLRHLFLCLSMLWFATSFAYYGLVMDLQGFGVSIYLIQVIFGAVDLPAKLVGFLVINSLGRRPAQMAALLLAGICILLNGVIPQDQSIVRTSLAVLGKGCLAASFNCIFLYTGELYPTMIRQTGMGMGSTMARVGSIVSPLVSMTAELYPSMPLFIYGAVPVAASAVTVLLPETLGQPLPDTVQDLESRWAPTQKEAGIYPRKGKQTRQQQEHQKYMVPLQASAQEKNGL
Protocol: as §1, §2, §3
Assumes no substrate-dependent shift in IC50 versus PDA.^1 Each OAT form was singularly transfected in human embryonic kidney 293 cells.

## C=CC(=O)N1C[C@H](Nc2ncnc3[nH]ccc23)CC[C@@H]1C [Ritlecitinib, ritlecitinib]
OATP1B1; OATP1B1 (RSV)
  Triggers Drug Interaction Cutoff: Yes
  R-value: 1.10
OATP1B1; OATP1B1 (RSV), listed as ritlecitinib
  R-value: 1.1
OATP1B1; OATP1B1 (RSV), Imax,inlet,u/(Imax,inlet,u + IC50) (Eq. 1)
  Fraction Inhibited: 0.09
OATP1B1; OATP1B1 (RSV), Imax,inlet,u/(Imax,inlet,u + IC50) (Eq. 1), listed as ritlecitinib
  Fraction Inhibited: ≤ 0.1
OATP1B1
  IC50: 312 ± 19 µM
OATP1B3; OATP1B3 (RSV)
  Triggers Drug Interaction Cutoff: No
OATP1B3; OATP1B3 (RSV), 1 + (Imax,inlet,u/IC50), cutoff 1.1 (FDA), 1.04 (EMA)
  R-value: 1.03
OATP1B3; OATP1B3 (RSV), Imax,inlet,u/(Imax,inlet,u + IC50) (Eq. 1)
  Fraction Inhibited: 0.03
OATP1B3; OATP1B3 (RSV), Imax,inlet,u/(Imax,inlet,u + IC50) (Eq. 1), listed as ritlecitinib
  Fraction Inhibited: ≤ 0.1
OATP1B3
  IC50: 934 ± 59 µM
[1]; estimated maximal free hepatic portal concentration, ritlecitinib 200 mg
  Imax,inlet,u: 31.7 µM
[1]
  Cmax,u: 4.7 µM
[1]; oral molar dose of ritlecitinib (200 mg)/250 mL
  [I]2: 2803 µM
OAT1
  Fraction Inhibited: 0.03
  Triggers Drug Interaction Cutoff: Yes
  Cmax,u/IC50 ratio: 0.03
  IC50: 156 ± 6 µM
OAT1; listed as ritlecitinib
  Fraction Inhibited: ≤ 0.1

## C[C@H]1CC[C@@H](Nc2ncnc3[nH]ccc23)CN1C(=O)CCSC[C@H](N)C(=O)O [M2]
OATP1B1; OATP1B1 (RSV)
  Triggers Drug Interaction Cutoff: Yes
OATP1B1; OATP1B1 (RSV), Cmax,u used for metabolite M2
  Cmax,u/IC50 ratio: 0.70
OATP1B1; OATP1B1 (RSV), Cmax,u/(Cmax,u + IC50) for M2 (Eq. 3)
  Fraction Inhibited: 0.4
OATP1B1
  IC50: 2 ± 0.03 µM
OATP1B3; OATP1B3 (RSV)
  Triggers Drug Interaction Cutoff: Yes
OATP1B3; OATP1B3 (RSV), Cmax,u used for metabolite M2
  Cmax,u/IC50 ratio: 0.17
OATP1B3; OATP1B3 (RSV), Cmax,u/(Cmax,u + IC50) for M2 (Eq. 3)
  Fraction Inhibited: 0.1
OATP1B3
  IC50: 8.4 ± 0.2 µM
[1]
  Cmax,u: 1.4 μM and 1.4^j μM
OAT1; OAT1 (PAH), highest concentration 300 µM
  % inhibition at the highest concentration tested: 40%
OAT1
  Fraction Inhibited: < 0.01
  Triggers Drug Interaction Cutoff: No
  Cmax,u/IC50 ratio: < 0.01
  IC50: > 300 µM
